From US11524962B2, “Substituted pyrrolo[2,3-d]pyrimidines as inhibitors of protein arginine methyl transferase 5 (PRMT5)” (PRELUDE THERAPEUTICS, INCORPORATED, priority 2017, dated 2022)
Read-outs that look alike come from different tables or passages of the source. Blank lines part the entries; values can stand above or below the compound they belong to.

Legend:
[1] = In vivo pharmacokinetic study in rat; conditions: for clearance / half-life / Vd / bioavailability: Sprague-Dawley (SD), blood; for clearance / half-life / Vd: iv; for Vd: read-out: Vss; for bioavailability: po
Method: In a rat (SD, male, non-fasted) non-crossover cassette (n=2) PK study, Example 1 was dosed at 0.5 mg/kg (DMA: […]=5:95, solution) with another compound via i.v. administration (N=3) and 2 mg/kg (0.5% o Na CMC+0.50% Tween80, suspension) with another compound via oral gauge (p.o.) (N=3).
In a rat (SD, male and female, non-fasted) non-crossover cassette (n=4) PK study, Example 6 was dosed at 0.2 mg/kg (DMA: […]=5:95, solution) with other 3 compounds via i.v. administration (N=2 per sex) and 2 mg/kg (0.5% o Na CMC+0.50% Tween80, suspension) with other 3 compounds via oral gauge (p.o.) (N=2 per sex).
In a rat (SD, male and female, non-fasted) non-crossover PK study, Example 11 was dosed at 1 mg/kg (DMA: 20% HPBCD=5:95, solution) via i.v. administration (N=3 per sex) and 3 mg/kg (0.5% Na CMC+0.5% Tween80, suspension) via oral gauge (p.o.) (N=3 per sex).

[2] = test system: Symmetric Di-Methyl Arginine (sDMA) marks in Granta-519 cells; assay: sDMA Western blot / In Cell Western in Granta-519 cells; assay type: cell-based; conditions: Homo sapiens
Method: Compound titration and cell culture: Compounds were dissolved in DMSO to make 10 mM stock and 3-fold series dilutions were further conducted to make working stocks top at 1 mM. Granta-519 cells were maintained in PRMI 1640 (Corning Cellgro, Catalog #: 10-040-CV) supplemented with 10% v/v FBS (GE Healthcare, Catalog #: SH30910.03) and U-87 MG cells were maintained in DMEM (Corning Cellgro, Catalog #: 10-013-CV) with 10% FBS and 2 mM Glutamin (Corning Cellgro, Catalog #25005CV).
To determine enzyme inhibition IC50 values in Granta-519 and U-87 MG cells using Western Blot analysis. One day before experiment, Granta-519 cells were passaged to a density of 0.5×10^6 cells/ml. U-87 MG cells were trypsinized and 4×10^5 cells were seeded into 6-well plates and allow to grow overnight. The next day, Granta-519 cells were spun down at 1,500 rpm for 4 min, resuspend in fresh medium at 0.5×10^6 cells/ml and 3 mL of culture (1.5×10^6 cells) were seeded into 6 well plate. Eight-point, 3-fold serial dilutions of compound working stocks were added to cells (3 ul, 1:1,000 dilution, DMSO concentration was 0.1%; final top concentration at 1 uM) and incubated for 3 days. Cells incubated with DMSO was used as a vehicle control.
Cells were harvested 3 days later, resuspended in 15 uL PBS, lysed in 4% SDS, and homogenized by passing through homogenizer column (Omega Biotek, Catalog #: HCR003). Total protein concentrations were determined by BCA assay (ThermoFisher Scientific, Catalog #: 23225). Lysates were mixed with 5× Laemmli buffer and boiled for 5 min. Forty ug of total protein was separated on SDS-PAGE gels (Bio-Rad, catalog #: 4568083, 4568043), transferred to PVDF membrane, blocked with 5% dry milk (Bio-Rad, Catalog #: 1706404) in TBS with 0.1% v/v Tween 20 (TBST) for 1 hour at room temperature (RT), and incubated with primary antibodies (sDMA: Cell signaling, Catalog #: 13222, 1:3,000; β-Actin: sigma, Catalog #: 1:5,000) in 5% dry milk in TBST at 4° C. overnight. The next day, membranes were washed with TBST, 5×5 min, and incubated with HRP conjugated seconded antibody (GE Healthcare; Catalog #: NA934-1ML, NA931-1ML; 1:5,000) for 2 hours at RT, followed by 5×5 min washes with TBST, and incubation with ECL substrates (Bio-Rad, Catalog #: 1705061, 1705062). Chemiluminescent signal was captured with Fluochem HD2 imager (Proteinsimple). SmD3me2s bands were quantified by ImageJ. Signals were normalized to β-Actin and DMSO control. IC50 values were calculated using Graphpad Prism ([Inhibitor]vs. normalized response−Variable slope).
sDMA In Cell Western procedure (ICW): Granta-519 cells were passaged to a density of 0.5×10^6 cells/ml one day before experiments and allowed to grow overnight. The next day (day 0), cells were spun down at 1,500 rpm for 4 min, resuspended in fresh medium to 0.2×10^6 cells/ml and 100 uL of cells were added to 384-well plates using a Multidrop Combi Dispenser (ThermoFisher). A series of 9-point, 3-fold serial dilutions of compounds were prepared and dispensed into wells from a 1 mM stock solution using a TECAN digital dispenser (D300e) and the DMSO % concentration was normalized in each well to 0.1%. DMSO and 3 uM of reference compounds were used as negative (minimum inhibition) and positive (maximum inhibition) controls, respectively. After 3 days of incubation, cells were first resuspended and then 80 ul of cells were transferred to a Poly-D-lysine 384-well plate (Corning, Catalog #354663), followed by 30 minutes incubation at room temperature (RT) and 5 additional hours of incubation at 37° C. […]

[3] = In vivo brain exposure study in mouse; conditions: po, mouse CD-1 male, 10 mg/kg p.o.
Method: In a mouse (CD-1, male) brain exposure cassette study, Examples 2 and 6 were dosed together at 10 mg/kg each (0.5% Na CMC+0.5% Tween80, solution) via oral gauge (p.o.). At 3 time points (N=3), 2h, 4h and 8h, plasma and brain samples were analyzed for average drug concentrations.
In a mouse (CD-1, male) brain exposure study, Examples 11 was dosed at 10 mg/kg each (0.5% Na CMC+0.5% Tween80, solution) via oral gauge (p.o.). At 3 time points (N=3), 1 h, 2h and 4h, plasma and brain samples were analyzed for average drug concentrations.

[4] = rat SD male, i.v. 0.5 mg/kg, cassette
[5] = 72 h, Granta-519, 3 days, read-out: sDMA_Granta IC50

clearance [1, 4]: 56.2 mL/min/kg
half-life [1, 4]: 0.35 h
Vd [1, 4]: 1.36 L/kg
dose normalized AUC ([1]; rat SD male, p.o. 2 mg/kg, cassette): 145 ng·kg·h/mL/mg
IC50 [2, 5]: 22 nM
IC50 ([2]; Granta-519, initial testing, read-out: sDMS (Granta) IC50): 9 nM
SMILES: C[C@@](O)(c1ccc2c(c1)CC2)[C@H]1O[C@@H](n2ccc3c(N)ncnc32)[C@H](O)[C@@H]1O [Example 1, (2R,3R,4S,5S)-2-(4-amino-7H-pyrrolo[2,3-d]pyrimidin-7-yl)-5-((R)-1-(bicyclo[4.2.0]octa-1(6),2,4-trien-3-yl)-1-hydroxyethyl)tetrahydrofuran-3,4-diol]

SMILES: Cc1ncnc2c1ccn2[C@@H]1O[C@H]([C@H](O)c2ccc3c(c2)CC3)[C@@H](O)[C@H]1O [Example 11, (2R,3S,4R,5R)-2-((R)-bicyclo[4.2.0]octa-1(6),2,4-trien-3-yl(hydroxy)methyl)-5-(4-methyl-7H-pyrrolo[2,3-d]pyrimidin-7-yl)tetrahydrofuran-3,4-diol]
clearance ([1]; rat SD female, i.v. 1 mg/kg): 37.2 mL/min/kg
half-life ([1]; rat SD female, i.v. 1 mg/kg): 1.84 h
Vd ([1]; rat SD female, i.v. 1 mg/kg): 2.71 L/kg
clearance ([1]; rat SD male, i.v. 1 mg/kg): 77.5 mL/min/kg
half-life ([1]; rat SD male, i.v. 1 mg/kg): 1.06 h
Vd ([1]; rat SD male, i.v. 1 mg/kg): 2.85 L/kg
bioavailability ([1]; rat SD female, p.o. 3 mg/kg): 97%
bioavailability ([1]; rat SD male, p.o. 3 mg/kg): 13%
dose normalized AUC ([1]; rat SD female, p.o. 3 mg/kg): 434 ng·kg·h/mL/mg
dose normalized AUC ([1]; rat SD male, p.o. 3 mg/kg): 33 ng·kg·h/mL/mg
IC50 [2, 5]: 33 nM
concentration at 1 h ([3]; brain, read-out: Brain-1 h): 188 ng/g
concentration at 2 h ([3]; brain, read-out: Brain-2 h): 85.7 ng/g
concentration at 4 h ([3]; brain, read-out: Brain-4 h): 50.2 ng/g
concentration at 1 h ([3]; plasma, read-out: Plasma-1 h): 207 ng/mL
concentration at 2 h ([3]; plasma, read-out: Plasma-2 h): 148 ng/mL
concentration at 4 h ([3]; plasma, read-out: Plasma-4 h): 53.6 ng/mL

IC50 [2, 5]: 1700 nM
SMILES: Cc1ncnc2c1ccn2[C@@H]1O[C@H]([C@H](O)c2nc3c(s2)CCC3)[C@@H](O)[C@H]1O [Example 52, (2S,3S,4R,5R)-2-((S)-(5,6-dihydro-4H-cyclopenta[d]thiazol-2-yl)(hydroxy)methyl)-5-(4-methyl-7H-pyrrolo[2,3-d]pyrimidin-7-yl)tetrahydrofuran-3,4-diol]

IC50 [2, 5]: 759 nM
SMILES: CNc1ncnc2c1ccn2[C@@H]1O[C@H]([C@H](O)c2ccc3c(c2)CC3)[C@@H](O)[C@H]1O [Example 54, (2R,3S,4R,5R)-2-((R)-bicyclo[4.2.0]octa-1(6),2,4-trien-3-yl(hydroxy)methyl)-5-(4-(methylamino)-7H-pyrrolo[2,3-d]pyrimidin-7-yl)tetrahydrofuran-3,4-diol]

IC50 [2, 5]: 5240 nM
SMILES: OCCc1ncnc2c1ccn2[C@@H]1O[C@H]([C@H](O)c2ccc3c(c2)CC3)[C@@H](O)[C@H]1O [Example 53, (2R,3S,4R,5R)-2-((R)-bicyclo[4.2.0]octa-1,3,5-trien-3-yl(hydroxy)methyl)-5-(4-(2-hydroxyethyl)-7H-pyrrolo[2,3-d]pyrimidin-7-yl)tetrahydrofuran-3,4-diol]

IC50 [2, 5]: 3780 nM
SMILES: Nc1ncnc2c1c(Br)cn2[C@@H]1O[C@H]([C@H](O)c2ccc3c(c2)CC3)[C@@H](O)[C@H]1O [Example 36, (2R,3R,4S,5R)-2-(4-amino-5-bromo-7H-pyrrolo[2,3-d]pyrimidin-7-yl)-5-((R)-bicyclo[4.2.0]octa-1,3,5-trien-3-yl(hydroxy)methyl)tetrahydrofuran-3,4-diol]

IC50 [2, 5]: 20 nM
concentration at 2 h ([3]; cassette, brain, read-out: Brain-2 h): 244 ng/g
concentration at 4 h ([3]; cassette, brain, read-out: Brain-4 h): 174 ng/g
concentration at 8 h ([3]; cassette, brain, read-out: Brain-8 h): 76.2 ng/g
concentration at 2 h ([3]; cassette, plasma, read-out: Plasma-2 h): 1610 ng/mL
concentration at 4 h ([3]; cassette, plasma, read-out: Plasma-4 h): 802 ng/mL
concentration at 8 h ([3]; cassette, plasma, read-out: Plasma-8 h): 178 ng/mL
SMILES: Nc1ncnc2c1ccn2[C@@H]1O[C@H]([C@H](O)c2ccc3c(c2)CC3)[C@@H](O)[C@H]1O [Example 2, (2R,3R,4S,5R)-2-(4-amino-7H-pyrrolo[2,3-d]pyrimidin-7-yl)-5-((R)-bicyclo[4.2.0]octa-1(6),2,4-trien-3-yl(hydroxy)methyl)tetrahydrofuran-3,4-diol]

IC50 [2, 5]: 923 nM
SMILES: O[C@@H]1[C@H](O)[C@@H]([C@H](O)c2ccc3c(c2)CC3)O[C@H]1n1ccc2c(Cl)ncnc21 [Example 56, (2R,3S,4R,5R)-2-((R)-bicyclo[4.2.0]octa-1(6),2,4-trien-3-yl(hydroxy)methyl)-5-(4-chloro-7H-pyrrolo[2,3-d]pyrimidin-7-yl)tetrahydrofuran-3,4-diol]
